Laboratory results published in PubChem BioAssay (NCI).
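Results reflect a 48-hour exposure of cells in 96-well plates to compound at five concentrations. Here, GI50 denotes the concentration required for 50% inhibition of growth. At the TGI there is no net growth.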

How the values were obtained:
Assay in all cases: DTP human tumour cell line panel, 48 h
NCI/ADR-RES ovarian = tested on: NCI/ADR-RES ovarian
SF-295 CNS = tested on: SF-295 CNS
COLO 205 colon = tested on: COLO 205 colon
NCI-H460 lung = tested on: NCI-H460 lung
RXF 393 renal = tested on: RXF 393 renal
HS 578T breast = tested on: HS 578T breast
MDA-MB-231 breast = tested on: MDA-MB-231 breast
DU-145 prostate = tested on: DU-145 prostate
RPMI-8226 leukemia = tested on: RPMI-8226 leukemia
HOP-62 NSCLC = tested on: HOP-62 NSCLC
786-0 renal = tested on: 786-0 renal
HCT-116 colon = tested on: HCT-116 colon
HOP-92 NSCLC = tested on: HOP-92 NSCLC
OVCAR-4 ovarian = tested on: OVCAR-4 ovarian
SK-MEL-2 melanoma = tested on: SK-MEL-2 melanoma
CAKI-1 renal = tested on: CAKI-1 renal
SK-MEL-28 melanoma = tested on: SK-MEL-28 melanoma
UACC-62 melanoma = tested on: UACC-62 melanoma
MALME-3M melanoma = tested on: MALME-3M melanoma
MDA-MB-435 = tested on: MDA-MB-435
HT29 colon = tested on: HT29 colon
A498 renal = tested on: A498 renal
SK-OV-3 ovarian = tested on: SK-OV-3 ovarian
SF-268 CNS = tested on: SF-268 CNS
NCI-H522 lung = tested on: NCI-H522 lung
HCT-15 colon = tested on: HCT-15 colon
OVCAR-8 ovarian = tested on: OVCAR-8 ovarian
SNB-19 CNS = tested on: SNB-19 CNS
CCRF-CEM leukemia = tested on: CCRF-CEM leukemia
UACC-257 melanoma = tested on: UACC-257 melanoma
MOLT-4 leukemia = tested on: MOLT-4 leukemia
BT-549 breast = tested on: BT-549 breast
HL-60(TB) leukemia = tested on: HL-60(TB) leukemia
SF-539 CNS = tested on: SF-539 CNS
UO-31 renal = tested on: UO-31 renal
KM12 colon = tested on: KM12 colon
SK-MEL-5 melanoma = tested on: SK-MEL-5 melanoma
PC-3 prostate = tested on: PC-3 prostate
NCI-H226 lung = tested on: NCI-H226 lung
A549 NSCLC = tested on: A549 NSCLC
LOX IMVI melanoma = tested on: LOX IMVI melanoma
OVCAR-3 ovarian = tested on: OVCAR-3 ovarian
MCF7 breast = tested on: MCF7 breast
ACHN renal = tested on: ACHN renal
U251 CNS = tested on: U251 CNS
OVCAR-5 ovarian = tested on: OVCAR-5 ovarian
IGROV1 ovarian = tested on: IGROV1 ovarian
NCI-H23 lung = tested on: NCI-H23 lung
T-47D breast = tested on: T-47D breast
SR leukemia = tested on: SR leukemia
TK-10 renal = tested on: TK-10 renal
HCC-2998 colon = tested on: HCC-2998 colon
SW-620 colon = tested on: SW-620 colon
SNB-75 CNS = tested on: SNB-75 CNS
K-562 leukemia = tested on: K-562 leukemia
SN12C renal = tested on: SN12C renal

N#Cc1ccc(-c2c(-c3ncn[nH]3)sc(N3CCOCC3)c2C#N)c(F)c1
GI50 (NCI/ADR-RES ovarian): 3.19 µM | TGI (NCI/ADR-RES ovarian): > 100 µM | GI50 (SF-295 CNS): 426 nM | TGI (SF-295 CNS): 11.4 µM | GI50 (COLO 205 colon): 687 nM | TGI (COLO 205 colon): 15.6 µM | GI50 (NCI-H460 lung): 419 nM | TGI (NCI-H460 lung): 23.6 µM | GI50 (RXF 393 renal): 246 nM | TGI (RXF 393 renal): 1680 nM | GI50 (HS 578T breast): 381 nM | TGI (HS 578T breast): 4.85 µM | GI50 (MDA-MB-231 breast): 3.28 µM | TGI (MDA-MB-231 breast): 25.7 µM | GI50 (DU-145 prostate): 1660 nM | TGI (DU-145 prostate): > 100 µM | GI50 (RPMI-8226 leukemia): 4.5 µM | TGI (RPMI-8226 leukemia): 48.6 µM | GI50 (HOP-62 NSCLC): 1050 nM | TGI (HOP-62 NSCLC): 21.9 µM | GI50 (786-0 renal): 457 nM | TGI (786-0 renal): 12.1 µM | GI50 (HCT-116 colon): 553 nM | TGI (HCT-116 colon): 37.6 µM | GI50 (HOP-92 NSCLC): 66.3 nM | TGI (HOP-92 NSCLC): 973 nM | GI50 (OVCAR-4 ovarian): 2820 nM | TGI (OVCAR-4 ovarian): 36.6 µM | GI50 (SK-MEL-2 melanoma): 1920 nM | TGI (SK-MEL-2 melanoma): 10.7 µM | GI50 (CAKI-1 renal): 432 nM | TGI (CAKI-1 renal): 15.6 µM | GI50 (SK-MEL-28 melanoma): 458 nM | TGI (SK-MEL-28 melanoma): 5.33 µM | GI50 (UACC-62 melanoma): 384 nM | TGI (UACC-62 melanoma): 2640 nM | GI50 (MALME-3M melanoma): 275 nM | TGI (MALME-3M melanoma): 6 µM | GI50 (MDA-MB-435): 995 nM | TGI (MDA-MB-435): 17 µM | GI50 (HT29 colon): 363 nM | TGI (HT29 colon): 18.3 µM | GI50 (A498 renal): 22.5 nM | TGI (A498 renal): 206 nM | GI50 (SK-OV-3 ovarian): 197 nM | TGI (SK-OV-3 ovarian): 5.69 µM | GI50 (SF-268 CNS): 507 nM | TGI (SF-268 CNS): 59.1 µM | GI50 (NCI-H522 lung): 1170 nM | TGI (NCI-H522 lung): 15 µM | GI50 (HCT-15 colon): 596 nM | TGI (HCT-15 colon): 18.5 µM | GI50 (OVCAR-8 ovarian): 1850 nM | TGI (OVCAR-8 ovarian): > 100 µM | GI50 (SNB-19 CNS): 1960 nM | TGI (SNB-19 CNS): 38.9 µM | GI50 (CCRF-CEM leukemia): 3.88 µM | TGI (CCRF-CEM leukemia): > 100 µM | GI50 (UACC-257 melanoma): 418 nM | TGI (UACC-257 melanoma): 8.85 µM | GI50 (MOLT-4 leukemia): 484 nM | TGI (MOLT-4 leukemia): 27.6 µM | GI50 (BT-549 breast): 3.84 µM | TGI (BT-549 breast): 39.2 µM | GI50 (HL-60(TB) leukemia): 781 nM | TGI (HL-60(TB) leukemia): > 100 µM | GI50 (SF-539 CNS): 571 nM | TGI (SF-539 CNS): 4.53 µM | GI50 (UO-31 renal): 191 nM | TGI (UO-31 renal): 11.2 µM | GI50 (KM12 colon): 2250 nM | TGI (KM12 colon): 15.6 µM | GI50 (SK-MEL-5 melanoma): 2290 nM | TGI (SK-MEL-5 melanoma): 13.7 µM | GI50 (PC-3 prostate): 345 nM | TGI (PC-3 prostate): 20.3 µM | GI50 (NCI-H226 lung): 1830 nM | TGI (NCI-H226 lung): 86.3 µM | GI50 (A549 NSCLC): 666 nM | TGI (A549 NSCLC): 12.7 µM | GI50 (LOX IMVI melanoma): 546 nM | TGI (LOX IMVI melanoma): 13.1 µM | GI50 (OVCAR-3 ovarian): 502 nM | TGI (OVCAR-3 ovarian): 7.89 µM | GI50 (MCF7 breast): 135 nM | TGI (MCF7 breast): 17.7 µM | GI50 (ACHN renal): 398 nM | GI50 (U251 CNS): 1030 nM | TGI (U251 CNS): 21.7 µM | GI50 (OVCAR-5 ovarian): 455 nM | TGI (OVCAR-5 ovarian): 10.5 µM | GI50 (IGROV1 ovarian): 181 nM | TGI (IGROV1 ovarian): 948 nM | GI50 (NCI-H23 lung): 3.32 µM | TGI (NCI-H23 lung): > 100 µM | GI50 (T-47D breast): 39.1 nM | TGI (T-47D breast): 522 nM | GI50 (SR leukemia): 1880 nM | TGI (SR leukemia): 19.8 µM | GI50 (TK-10 renal): 316 nM | TGI (TK-10 renal): 7.11 µM | GI50 (HCC-2998 colon): 1080 nM | TGI (HCC-2998 colon): 17.2 µM | GI50 (SW-620 colon): 2940 nM | TGI (SW-620 colon): 29.9 µM | GI50 (SNB-75 CNS): 73.6 nM | TGI (SNB-75 CNS): 771 nM | GI50 (K-562 leukemia): 5.52 µM | TGI (K-562 leukemia): > 100 µM | GI50 (SN12C renal): 835 nM | TGI (SN12C renal): > 100 µM
